Among the data in PMC6194350, “Catalytic Performance of a Class III Old Yellow Enzyme and Its Cysteine Variants” (Frontiers in Microbiology, 2018) are Km and relative activity values, retold here.

Holding throughout (assay type): biochemical
Test [1] addresses T1, OYERo2a (WT) (Rhodococcus opacus, UniProt A0A1B1KA86, C25S, form not given).
T1 construct: gene O4328_33150; FMN 1:1; dimer by gel filtration; single Cys25
Kind of test: steady-state kinetics, NADPH consumption at […] nm. The settings on record: 50 mM phosphate pH 7.1, 25°C.

In test [2] the target is T2, OYERo2a (WT) (Rhodococcus opacus, UniProt A0A1B1KA86).
T2 construct: gene O4328_33150; FMN 1:1; dimer by gel filtration; single Cys25
Kind of test: steady-state kinetics, NADPH consumption at […] nm. The settings on record: 50 mM phosphate pH 7.1, 25°C.

For test [3], the target named is T3, OYERo2a (WT) (Rhodococcus opacus, UniProt A0A1B1KA86, C25G, form not given).
T3 construct: gene O4328_33150; FMN 1:1; dimer by gel filtration; single Cys25
Kind of test: steady-state kinetics, BNAH consumption at […] nm. The settings on record: electron donor; 1 mM N-methylmaleimide, 50 mM phosphate pH 7.1, 25°C.

The target of test [4] is T2, OYERo2a (WT). Kind of test: steady-state kinetics, BNAH consumption at […] nm. The settings on record: electron donor; 1 mM N-methylmaleimide, 50 mM phosphate pH 7.1, 25°C.
The target in test [5] is T1, OYERo2a (WT). The test can be described thus: steady-state kinetics, BNAH consumption at […] nm. The settings on record: electron donor; 1 mM N-methylmaleimide, 50 mM phosphate pH 7.1, 25°C.
Test [6] addresses T4, OYERo2a (WT) (Rhodococcus opacus, UniProt A0A1B1KA86, C25A, form not given).
T4 construct: gene O4328_33150; FMN 1:1; dimer by gel filtration; single Cys25
Kind of test: steady-state kinetics, BNAH consumption at […] nm. The conditions noted are these: electron donor; 1 mM N-methylmaleimide, 50 mM phosphate pH 7.1, 25°C.

Test [7] has as its target T4, OYERo2a (WT). Kind of test: steady-state kinetics, NADPH consumption at […] nm. The settings on record: 50 mM phosphate pH 7.1, 25°C.
The target in test [8] is T3, OYERo2a (WT). The test can be described thus: steady-state kinetics, NADPH consumption at […] nm. The conditions noted are these: 50 mM phosphate pH 7.1, 25°C.
The target of test [9] is T2, OYERo2a (WT). The test can be described thus: residual activity after pre-incubation. The conditions noted are these: covalent (Cys25); 10 mM, 120 min, 50 mM phosphate pH 7.1, 4°C, dark, oxidized enzyme.

T1 sequence (A0A1B1KA86 entry or part of it C25S, form open): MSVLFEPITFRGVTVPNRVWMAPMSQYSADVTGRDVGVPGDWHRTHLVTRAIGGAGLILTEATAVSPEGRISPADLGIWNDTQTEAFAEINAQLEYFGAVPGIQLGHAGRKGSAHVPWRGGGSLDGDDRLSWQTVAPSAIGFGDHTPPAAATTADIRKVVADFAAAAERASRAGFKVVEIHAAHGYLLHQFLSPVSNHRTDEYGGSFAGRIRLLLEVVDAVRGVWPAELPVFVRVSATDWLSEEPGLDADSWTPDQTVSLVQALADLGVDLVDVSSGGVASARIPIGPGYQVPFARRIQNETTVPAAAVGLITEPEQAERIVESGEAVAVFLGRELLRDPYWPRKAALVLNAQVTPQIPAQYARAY
T2 sequence (A0A1B1KA86 entry or part of it): as the sequence (A0A1B1KA86 entry or part of it C25S, form open) above, with S25C counted along it
T4 sequence (A0A1B1KA86 entry or part of it C25A, form open): as the sequence (A0A1B1KA86 entry or part of it C25S, form open) above, with S25A counted along it
T3 sequence (A0A1B1KA86 entry or part of it C25G, form open): as the sequence (A0A1B1KA86 entry or part of it C25S, form open) above, with S25G counted along it

Turning to `O=C1C=CCCC1` [2-cyclohexen-1-one], the Km is 8900 µM in test [1] (180 μM NADPH, read-out: C25S) and 3500 µM in test [2] (180 μM NADPH, read-out: WT).
Regarding `NC(=O)C1=CN(Cc2ccccc2)C=CC1` [BNAH], the Km in test [3] was 517 ± 45 µM; in test [4] it was 169 ± 12.4 µM; in test [5], 239 ± 24.3 µM; in [6], 230 ± 17.8 µM.
Turning to `CN1C(=O)C=CC1=O` [N-methylmaleimide], the Km came out at 9.1 µM in test [7] (180 μM NADPH, read-out: C25A); 30.4 µM in test [1] (180 μM NADPH, read-out: C25S); 94.4 µM in test [8] (180 μM NADPH, read-out: C25G); 9.6 µM in test [2] (180 μM NADPH, read-out: WT). Besides, the relative activity result in test [9] is “while the OYERo2a became almost completely inactivated”.
As for `NC(=O)C1=CN([C@@H]2O[C@H](COP(=O)(O)OP(=O)(O)OC[C@H]3O[C@@H](n4cnc5c(N)ncnc54)[C@H](OP(=O)(O)O)[C@@H]3O)[C@@H](O)[C@H]2O)C=CC1` [NADPH], the Km in test [7] (electron donor, 1 mM N-methylmaleimide, read-out: C25A / NADPH) was found to be 121 ± 8.7 µM; in test [1] (electron donor, 1 mM N-methylmaleimide, read-out: C25S / NADPH), 76.9 ± 4.1 µM; in [8] (electron donor, 1 mM N-methylmaleimide, read-out: C25G / NADPH) it was 55.2 ± 2.3 µM; in test [2] (electron donor, 1 mM N-methylmaleimide, read-out: WT / NADPH), 34.8 ± 2 µM.
